Results on 26 compounds are retold here after patent US8859580B2 (Boehringer Ingelheim International GmbH, priority 2007, dated 2014).

For this experiment, the target named is T1, 11β-HSD1 (Homo sapiens, UniProt P28845).
T1 construct: detecting cortisol generated from cortisterone by human liver microsomes; from tissue; host or cells: human liver microsomes
Briefly: In vitro inhibition of 11β-HSD1, HTRF detection of cortisol generated from cortisone by human liver microsomes. In kind it is biochemical. Conditions: 1 hour at 37° C., pH 6.0, NADPH 200 μM, cortisone 80 nM, inhibition relative to carbenoxolone signal. The procedure, abridged:
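Cortisol formed from cortisone by human liver microsomes quantified by competitive HTRF immunoassay (XL665-cortisol, Eu-cryptate anti-cortisol antibody), 2 h detection, Em665/Em615 ratio converted via cortisol calibration curve. Percent inhibition relative to carbenoxolone signal; IC50 from curves.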

One may read the IC50 as the concentration that gives 50% inhibition.

Molecules are shown by their SMILES. Like-named read-outs stand apart in the source and are kept apart here.

T1 sequence (P28845 whole entry): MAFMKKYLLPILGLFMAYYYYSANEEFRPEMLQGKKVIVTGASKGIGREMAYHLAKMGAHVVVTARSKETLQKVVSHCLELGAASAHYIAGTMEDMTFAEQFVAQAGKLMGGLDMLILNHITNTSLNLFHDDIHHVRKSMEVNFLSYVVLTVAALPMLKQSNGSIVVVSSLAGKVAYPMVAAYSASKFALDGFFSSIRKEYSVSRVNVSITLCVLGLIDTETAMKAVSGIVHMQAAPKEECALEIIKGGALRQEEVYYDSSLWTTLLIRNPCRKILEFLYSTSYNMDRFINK

Compound `Cn1nnc2cc3c(cc21)C[C@H]1N(C(=O)c2ccc4nc[nH]c4c2)CC[C@]3(C)C1(C)C` [Example 258, (3H-Benzoimidazol-5-yl)-[(6R,10S)-5,6,7,8,9,10-hexahydro-3,10,12,12-tetramethyl-6,10-methano-triazolo[4,5-i][3]benzazocin-7-yl]-methanone] came in with an IC50 (11β-HSD IC50 (nM)) of 33 nM.

The compound `CC1(C)[C@H]2Cc3ccccc3[C@]1(C)CCN2C(=O)c1c[nH]c2ccccc12` [Example 259, (1H-Indol-3-yl)-[(2R,6S)-6,11,11-trimethyl-1,2,5,6-tetrahydro-4H-2,6-methano-benzo[d]azocin-3-yl]-methanone] came in with an IC50 (11β-HSD IC50 (nM)) of 115 nM.

Compound `CC(O)(c1cccc(C(=O)N2CC[C@@]3(C)c4cccc(O)c4C[C@@H]2C3(C)C)c1)C(F)(F)F` (stereo partly drawn) [Example 260, [(2R,6S)-10-Hydroxy-6,11,11-trimethyl-1,2,5,6-tetrahydro-4H-2,6-methano-benzo[d]azocin-3-yl]-[3-(2,2,2-trifluoro-1-hydroxy-1-methyl-ethyl)-phenyl]-methanone] registered a half-inhibitory concentration (IC50) (11β-HSD IC50 (nM)) of 181 nM.

Under “11β-HSD IC50 (nM)”, `COc1ccc2c(c1[N+](=O)[O-])[C@]1(C)CCN(C(=O)c3ccc4nc[nH]c4c3)[C@H](C2)[C@H]1C` [Example 261, (3H-Benzoimidazol-5-yl)-[(2R,6R,11S)-8-methoxy-6,11-dimethyl-7-nitro-1,2,5,6-tetrahydro-4H-2,6-methano-benzo[d]azocin-3-yl]-methanone] gave an IC50 of 47 nM.

Compound `Cc1nccc(-c2ccc3c(c2)[C@]2(C)CCN(C(=O)c4ccc5nc[nH]c5c4)[C@H](C3)[C@H]2C)n1` [Example 262, (3H-Benzoimidazol-5-yl)-[(2R,6R,11S)-6,11-dimethyl-8-(2-methyl-pyrimidin-4-yl)-1,2,5,6-tetrahydro-4H-2,6-methano-benzo[d]azocin-3-yl]-methanone] came in with a half-maximal inhibitory concentration (IC50) (11β-HSD IC50 (nM)) of 73 nM.

In turn, `Cc1ccc(-c2ccc3c(c2)[C@]2(C)CCN(C(=O)c4ccc5nc[nH]c5c4)[C@H](C3)[C@H]2C)nn1` [Example 263, (3H-Benzoimidazol-5-yl)-[(2R,6R,11S)-6,11-dimethyl-8-(6-methyl-pyridazin-3-yl)-1,2,5,6-tetrahydro-4H-2,6-methano-benzo[d]azocin-3-yl]-methanone] returned an IC50 (11β-HSD IC50 (nM)) of 71 nM.

As for `C[C@@H]1[C@H]2Cc3ccc(-c4ccncn4)cc3[C@]1(C)CCN2C(=O)c1ccc2nc[nH]c2c1` [Example 264, (3H-Benzoimidazol-5-yl)-[(2R,6R,11S)-6,11-dimethyl-8-pyrimidin-4-yl-1,2,5,6-tetrahydro-4H-2,6-methano-benzo[d]azocin-3-yl]-methanone], it took 78 nM to reach half-maximal inhibition (11β-HSD IC50 (nM)) (IC50).

`CC1(C)[C@H]2Cc3cc4nn[nH]c4cc3[C@]1(C)CCN2C(=O)c1ccc2nc[nH]c2c1` [Example 265, (3H-Benzoimidazol-5-yl)-[(6R,10S)-5,6,7,8,9,10-hexahydro-10,12,12-trimethyl-6,10-methano-1H-triazolo[5,4-i][3]benzazocin-7-yl]-methanone] displayed a half-maximal inhibitory concentration (IC50) (11β-HSD IC50 (nM)) of 22 nM.

`CC1(C)[C@H]2Cc3cc4nc(-c5cnccn5)[nH]c4cc3[C@]1(C)CCN2C(=O)c1ccc2nc[nH]c2c1` [Example 266, (3H-Benzoimidazol-5-yl)-[(6R,10S)-5,6,7,8,9,10-hexahydro-10,12,12-trimethyl-2-pyrazin-2-yl-6,10-methano-imidazo[5,4-i][3]benzazocin-7-yl]-methanone]: the IC50 (11β-HSD IC50 (nM)) is 42 nM.

Regarding `COc1ccc2c(c1N)[C@]1(C)CCN(C(=O)c3ccc4nc[nH]c4c3)[C@H](C2)[C@H]1C` [Example 267, (3H-Benzoimidazol-5-yl)-[(2R,6R,11S)-7-amino-8-methoxy-6,11-dimethyl-1,2,5,6-tetrahydro-4H-2,6-methano-benzo[d]azocin-3-yl]-methanone], where the note is “11β-HSD IC50 (nM)”, the IC50 worked out at 66 nM.

The compound `COc1ccc2c(c1NS(C)(=O)=O)[C@]1(C)CCN(C(=O)c3ccc4nc[nH]c4c3)[C@H](C2)[C@H]1C` [Example 268, N-[(2R,6R,11S)-3-(3H-Benzoimidazole-5-carbonyl)-8-methoxy-6,11-dimethyl-1,2,3,4,5,6-hexahydro-2,6-methano-benzo[d]azocin-7-yl]-methanesulfonamide] displayed an IC50 (11β-HSD IC50 (nM)) of 931 nM.

`CC(=O)N1CCC(c2nc3cc4c(cc3[nH]2)[C@]2(C)CCN(C(=O)c3ccc5nc[nH]c5c3)[C@H](C4)C2(C)C)CC1` [Example 269, [(6R,10S)-2-(1-Acetyl-piperidin-4-yl)-5,6,7,8,9,10-hexahydro-10,12,12-trimethyl-6,10-methano-imidazo[5,4-i][3]benzazocin-7-yl]-(3H-benzoimidazol-5-yl)-methanone]: inhibition (11β-HSD IC50 (nM)) was half-maximal at 63 nM (IC50).

`COc1ccc2c(c1-n1cccc1)[C@]1(C)CCN(C(=O)c3ccc4nc[nH]c4c3)[C@H](C2)[C@H]1C` [Example 270, (3H-Benzoimidazol-5-yl)-[(2R,6R,11S)-8-methoxy-6,11-dimethyl-7-pyrrol-1-yl-1,2,5,6-tetrahydro-4H-2,6-methano-benzo[d]azocin-3-yl)-methanone]: where the note is “11β-HSD IC50 (nM)”, half-maximal inhibition (IC50) required 99 nM.

`CC1(C)[C@H]2Cc3cc4nc(C5CC5)[nH]c4cc3[C@]1(C)CCN2C(=O)c1ccc2nc[nH]c2c1` [Example 271, (3H-Benzoimidazol-5-yl)-[(6R,10S)-2-cyclopropyl-5,6,7,8,9,10-hexahydro-10,12,12-trimethyl-6,10-methano-imidazo[5,4-i][3]benzazocin-7-yl]-methanone]: half-maximal inhibition (11β-HSD IC50 (nM)) (IC50) required 50 nM.

In the case of `Cn1cc(C2=NC3=CC4=C(CC3=N2)C[C@H]2N(C(=O)c3ccc5nc[nH]c5c3)CC[C@]4(C)C2(C)C)ccc1=O` [Example 272, (3H-Benzoimidazol-5-yl)-[(6R,10S)-5,6,7,8,9,10-hexahydro-10,12,12-trimethyl-2-(1-methyl-6-oxo-1,6-dihydro-pyridin-3-yl)-6,10-methano-imidazo[5,4-i][3]benzazocin-7-yl]-methanone], the IC50 (read-out: 11β-HSD IC50) was 44 nM.

As for `CC(C)(C)c1nc2cc3c(cc2[nH]1)[C@]1(C)CCN(C(=O)c2ccc4nc[nH]c4c2)[C@H](C3)C1(C)C` [Example 273, (3H-Benzoimidazol-5-yl)-[(6R,10S)-2-tert-butyl-5,6,7,8,9,10-hexahydro-10,12,12-trimethyl-6,10-methano-imidazo[5,4-i][3]benzazocin-7-yl]-methanone], the 50% inhibitory concentration (IC50) (11β-HSD IC50 (nM)) came out at 35 nM.

Take `CC1(C)[C@H]2Cc3cc4nc(-c5cccnc5)[nH]c4cc3[C@]1(C)CCN2C(=O)c1ccc2nc[nH]c2c1` [Example 274, (3H-Benzoimidazol-5-yl)-[(6R,10S)-5,6,7,8,9,10-hexahydro-10,12,12-trimethyl-2-pyridin-3-yl-6,10-methano-imidazo[5,4-i][3]benzazocin-7-yl]-methanone]: the IC50 (11β-HSD IC50 (nM)) came out at 51 nM.

The compound `CC1(C)[C@H]2Cc3cc4nc([C@@H]5CCCO5)[nH]c4cc3[C@]1(C)CCN2C(=O)c1ccc2nc[nH]c2c1` [Example 275, (3H-Benzoimidazol-5-yl)-[(6R,10S)-5,6,7,8,9,10-hexahydro-10,12,12-trimethyl-2-[(S)-tetrahydrofuran-2-yl]-6,10-methano-imidazo[5,4-i][3]benzazocin-7-yl]-methanone] yielded an IC50 (11β-HSD IC50 (nM)) of 25 nM.

Consider `CC1(C)[C@H]2Cc3cc4nc(-c5ccnnc5)[nH]c4cc3[C@]1(C)CCN2C(=O)c1ccc2nc[nH]c2c1` [Example 276, (3H-Benzoimidazol-5-yl)-[(6R,10S)-5,6,7,8,9,10-hexahydro-10,12,12-trimethyl-2-pyridazin-4-yl-6,10-methano-imidazo[5,4-i][3]benzazocin-7-yl]-methanone], for which 34 nM corresponded to half-maximal inhibition (11β-HSD IC50 (nM)) (IC50).

Take `Cc1cnc(-c2nc3cc4c(cc3[nH]2)[C@]2(C)CCN(C(=O)c3ccc5nc[nH]c5c3)[C@H](C4)C2(C)C)cn1` [Example 277, (3H-Benzoimidazol-5-yl)-[(6R,10S)-5,6,7,8,9,10-hexahydro-10,12,12-trimethyl-2-(5-methyl-pyrazin-2-yl)-6,10-methano-imidazo[5,4-i][3]benzazocin-7-yl]-methanone]: under “11β-HSD IC50 (nM)”, half-maximal inhibition (IC50) required 34 nM.

`CC1(C)[C@H]2Cc3ccccc3[C@]1(C)CCN2C(=O)c1ccc2nccnc2c1` [Example 278, Quinoxalin-6-yl-[(2R,6S)-6,11,11-trimethyl-1,2,5,6-tetrahydro-4H-2,6-methano-benzo[d]azocin-3-yl]-methanone]: where the note is “11β-HSD IC50 (nM)”, the 50% inhibitory concentration (IC50) came out at 438 nM.

Turning to `C[C@@H]1[C@H]2Cc3ccc(-c4ccn(C)c(=O)c4)cc3[C@]1(C)CCN2C(=O)c1ccc2nc[nH]c2c1` [Example 279, (3H-Benzoimidazol-5-yl)-[(2R,6R,11S)-6,11-dimethyl-8-(1-methyl-2-oxo-1,2-dihydro-pyridin-4-yl)-1,2,5,6-tetrahydro-4H-2,6-methano-benzo[d]azocin-3-yl]-methanone], the IC50 (11β-HSD IC50 (nM)) was 52 nM.

Regarding `CC1(C)[C@H]2Cc3ccccc3[C@]1(C)CCN2C(=O)c1ccc([N+](=O)[O-])cc1` [Example 280, (4-Nitro-phenyl)-[(2R,6S)-6,11,11-trimethyl-1,2,5,6-tetrahydro-4H-2,6-methano-benzo[d]azocin-3-yl]-methanone], the IC50 (11β-HSD IC50 (nM)) came to 1260 nM.

`CC1(C)[C@H]2Cc3ccccc3[C@]1(C)CCN2C(=O)c1c(F)c(F)c(N)c(F)c1F` [Example 281, (4-Amino-2,3,5,6-tetrafluoro-phenyl)-[(2R,6S)-6,11,11-trimethyl-1,2,5,6-tetrahydro-4H-2,6-methano-benzo[d]azocin-3-yl]-methanone] displayed a half-inhibitory concentration (IC50) (11β-HSD IC50 (nM)) of 918 nM.

`CC1(C)[C@H]2Cc3ccccc3[C@]1(C)CCN2C(=O)c1ccc2ccccc2c1` [Example 282, Naphthalen-2-yl-[(2R,6S)-6,11,11-trimethyl-1,2,5,6-tetrahydro-4H-2,6-methano-benzo[d]azocin-3-yl]-methanone]: where the note is “11β-HSD IC50 (nM)”, half-maximal inhibition (IC50) required 409 nM.

Where the note is “11β-HSD IC50 (nM)”, `CC1(C)[C@H]2Cc3ccccc3[C@]1(C)CCN2C(=O)c1cc(Cl)c(N)c(Cl)c1` [Example 283, (4-Amino-3,5-dichloro-phenyl)-[(2R,6S)-6,11,11-trimethyl-1,2,5,6-tetrahydro-4H-2,6-methano-benzo[d]azocin-3-yl]-methanone] came in with a half-inhibitory concentration (IC50) of 55 nM.
